Results: patent US20010011146A1, “NEUROPROTECTIVE COMPOUNDS AND USES THEREOF” (priority 1997, published 2001)
“Also recorded” adds a separate entry of the source. Like-named read-outs stand apart in the source and are kept apart here.

What was measured:
CA1 hippocampal neurons [1] = conditions: Cho et al. 1997, cited from earlier work
[2] = background statement; cited from earlier work
[3] = Body temperature recording during cerebral reperfusion (4-VO ischemic animals); format: in vivo, male Wister rats; conditions: for Temperature recording during cerebral reperfusion: mean ± s.e.m., in °C (unit assumed)
From the text: (§1) Four-vessel occlusion (“4-VO”) ischemia. All procedures regarding animals were in compliance with AALAC guidelines set forth in the PHS animal “Guide in the Care and Use of Laboratory Animals”. Animals (male Wister rats, 200-250 gr, Hill Top, Scottsdale) were anesthetized with a mixture of halothane (1%), oxygen, and nitrogen, and surgically prepared for 4-VO according to the method described by Pulsinell, W. A., et al., “Regional Cerebral Blood Flow and Glucose Metabolism Following Transient Forebrain Ischemia,” Ann. Neurol., 11:499-502 (1982), which is hereby incorporated by reference. Surgical procedures included placing reversible clasps around the common carotid arteries and placing a suture around the neck muscles to control collateral blood flow to the brain. Food was withheld overnight, but water was freely available. On the following day, 10 minutes of 4-VO ischemia was induced by tightening the clasps around the common carotid arteries and the suture. In order to minimize variability, the following criteria was set: loss of righting reflex and bilateral pupil dilation during the entire ischemic period, and 20±5 minutes of postischemic coma after 10 minutes of ischemia. Only animals that meet these criteria were included in the study. The body temperature of all animals was kept at 37.5±0.5° C. by a thermocouple-regulated heating lamp during ischemia and reperfusion until the animals regained consciousness and established thermo-homeostasis.
(§2) NAMDA administration. Animals subject to 10 minutes of ischemia randomly were divided into 4 groups. Animals received one of the following triple intraperitoneal injections: i) saline at 0, 0.5, and 2 hours, ii) NAMDA (10 mg/kg) at 0, 0.5, and 2 hours, iii) NAMDA at 1, 1.5, and 3 hours, and iv) NAMDA at 2, 2.5, and 4 hours of cerebral reperfusion. To examine whether NAMDA caused hypothermia, the animals' body temperatures were recorded for up to the first 4 hours of cerebral reperfusion. Sham-operated animals that underwent surgery and carotid manipulation were used as non-ischemic controls.
The animals' body temperature was kept at 37.5±0.5° C. during ischemia and first half hour of cerebral reperfusion when animals were typically stayed in postischemic coma. Temperatures were recorded soon after animals regained consciousness and recorded for up to 4 hours of cerebral reperfusion (Table 1).

[4] = system: NADPH-diaphorase activity in CA1 hippocampus; assay: NADPH-diaphorase histochemistry in postischemic CA1 hippocampus; format: in vivo, male Wister rats; conditions: triple i.p. injection 10 mg/kg during reperfusion
Procedure: as §2
Tissue preparation. Animals were anesthetized with sodium pentobarbital (120 mg/kg) and perfused transcardially with saline containing 0.5% sodium nitrite and 10 U/ml heparin sulfate followed by 4% cold formaldehyde in 0.1 M sodium phosphate buffer (PB, pH 7.2). The brains were further postfixed for 2 hours and stored in a 30% sucrose solution overnight. Fixed brains were sectioned at 30 μm on a sliding microtome. For each animal, the dorsal hippocampus between bregma −2.5 mm and −4.0 mm was sampled. Some sections were […] on slides and stained with cresyl violet to measure neuronal density. Others were used for free floating NADPH-diaphorase histochemistry.
NADPH-Diaphorase histochemistry. […]

CA1 hippocampal neurons [5] = assay: Four-vessel occlusion (4-VO) ischemia, CA1 neuronal density measurement; format: in vivo, male Wister rats
From the text: as §1, §2
Tissue preparation. […] Some sections were […] on slides and stained with cresyl violet to measure neuronal density. […]
Cell density measurement. […] Neurons were counted in the frame if part or all of the nucleus was within the frame and not in contact with the left or bottom border of the frame. […] The number of neurons counted were divided by the total volume sampled to generate the density of neurons in CA1. Mean neuron density was calculated for the left and right hippocampus (side) and for the anterior and posterior regions for each animal. […]

BV-2 cells = assay: Cell number count by tryphan exclusion in BV-2 cells; format: cell-based, murine; conditions: with or without LPS; end of 6 hours treatment; up to 5 mM
[6] = system: NADPH-diaphorase activity in BV-2 cells; assay: NADPH-diaphorase histochemical staining in BV-2 cells; format: cell-based, murine; conditions: 5 mM
Procedure: NADPH-Diaphorase histochemistry. The histochemical staining was performed according to the method described by Vincent, et al., “Histochemical Mapping of Nitric Oxide Synthase in the Rat Brain,” Neuroscience, 46:755-784 (1992), which is hereby incorporated by reference). Sections containing dorsal hippocampus are washed twice in 0.1 M phosphate buffer (“PB”) and then processed for NADPH-diaphorase histochemistry. To establish a temporal profile of NADPH-diaphorase staining during postischemic period, sections were obtained from animals that were perfuse fixed at 12 hours, 24 hours, 48 hours, 72 hours, and 7 days after ischemia. The sections were then incubated for 1 hour at 37° C. with a solution containing 1 mg/ml of NADPH, 0.25 mg/ml of nitro blue tetrazolium (“NBT”), and 0.3% Triton X-100 in 0.1 M PB. The reaction was terminated by the addition of cold 0.1M PB. […]
(§3) After the treatment, 200 μl aliquots of cell supernatant from each well were mixed with 100 μl of Griess reagent (1 % sulphanilamide, 0.1% naphthylethylenediamine dihydrochloride, 2.5% H3PO4) in 96 well microtiter plates. The mixtures were incubated for 10 minutes to form a chromophore and the absorbance was read at 540 nm using a plate reader. The amount of nitrite accumulation from media was determined against a standard curve generated by a known concentration of NaNO3. […]

BV-2 microglia cells = assay: Nitrite measurement (Griess reaction) in BV-2 microglia cells; format: cell-based, murine; conditions: 6 hours, 0.05-5 mM
Procedure: Nitrite measurement on microylial cell. To measure nitrite level, a NO oxidative metabolite, murine BV-2 cells, were used. […] The cells were grown and maintained in Dulbeccos Modified Eagle medium (“DMEM”, Gibco, Gaithersburg, Md.) supplemented with 10% fetal calf serum and penicillin/streptomycine at 37° C. in a humidified incubator under 5% CO2. BV-2 microglia cells were cultured and grown in 24 well culture plates and treated for 6 hours with 0. 0.05, 0.5, 2, or 5 mM or NAMDA either in the presence or absence of lipopolysaccharide (LPS, 0.2 μg/ml).
as §3, with “[…]. After removal of the supernatant for the nitrite assay, cells were immediately washed with 0.1M PB, fixed with 4% formaldehyde for 30 minutes, and washed with 0.1M PB for 5 minutes. NADPH-diaphorase histochemical staining was performed as described above.” for “NaNO3.”

COc1ccc2[nH]cc(CCNC(C)=O)c2c1 [melatonin, Melatonin]
Protection of CA1 neurons (CA1 hippocampal neurons [1]; administration starting immediately after / during reperfusion, 10 min transient forebrain ischemia): significantly protect CA1 neurons; also recorded: protects the CA1 hippocampal neurons
Protection of CA1 neurons with delayed administration (CA1 hippocampal neurons [1]; delay of one hour): did not offer significant protection
Protection of the neurons with delayed administration (CA1 hippocampal neurons [1]; delay of one to two hours in administration): significantly decreased protection of the neurons
Solubility in aqueous media [2]: insoluble in aqueous media

COc1cc(CCNC(C)=O)ccc1O [NAMDA, N-acetyl-3-O-methyldopamine]
Effect on body temperature versus saline-treated ischemic group ([3]; 10 mg/kg triple i.p., any time point up to 4 hours of reperfusion, ANOVA, Newman-Keuls): no differences in body temperatures
Temperature recording during cerebral reperfusion ([3]; NC-111 (0, 0.5, 2 h), n = 9, postischemic time 1 hour): 37.6 ± 0.2
Temperature recording during cerebral reperfusion ([3]; NC-111 (0, 0.5, 2 h), n = 9, postischemic time 1.5 hour): 37.3 ± 0.1
Temperature recording during cerebral reperfusion ([3]; NC-111 (0, 0.5, 2 h), n = 9, postischemic time 2 hour): 37.3 ± 0.1
Temperature recording during cerebral reperfusion ([3]; NC-111 (0, 0.5, 2 h), n = 9, postischemic time 3 hour): 37.5 ± 0.2
Temperature recording during cerebral reperfusion ([3]; NC-111 (0, 0.5, 2 h), n = 9, postischemic time 4 hour): 37.2 ± 0.1
Temperature recording during cerebral reperfusion ([3]; NC-111 (1 h) group (injections at 1, 1.5, 3 h), n = 7, postischemic time 0.5 hour): 37.9 ± 0.2
Temperature recording during cerebral reperfusion ([3]; NC-111 (1 h) group, n = 7, postischemic time 1 hour): 36.9 ± 0.1
Temperature recording during cerebral reperfusion ([3]; NC-111 (1 h) group, n = 7, postischemic time 1.5 hour): 37.0 ± 0.1
Temperature recording during cerebral reperfusion ([3]; NC-111 (1 h) group, n = 7, postischemic time 2 hour): 37.4 ± 0.1
Temperature recording during cerebral reperfusion ([3]; NC-111 (1 h) group, n = 7, postischemic time 3 hour): 37.5 ± 0.2
Temperature recording during cerebral reperfusion ([3]; NC-111 (1 h) group, n = 7, postischemic time 4 hour): 37.5 ± 0.3
Temperature recording during cerebral reperfusion ([3]; NC-111 (2 hr) group (injections at 2, 2.5, 4 h), n = 6, postischemic time 0.5 hour): 38.3 ± 0.2
Temperature recording during cerebral reperfusion ([3]; NC-111 (2 hr) group, n = 6, postischemic time 1 hour): 36.8 ± 0.3
Temperature recording during cerebral reperfusion ([3]; NC-111 (2 hr) group, n = 6, postischemic time 1.5 hour): 37.2 ± 0.4
Temperature recording during cerebral reperfusion ([3]; NC-111 (2 hr) group, n = 6, postischemic time 2 hour): 37.4 ± 0.2
Temperature recording during cerebral reperfusion ([3]; NC-111 (2 hr) group, n = 6, postischemic time 3 hour): 37.3 ± 0.2
Temperature recording during cerebral reperfusion ([3]; NC-111 (2 hr) group, n = 6, postischemic time 4 hour): 37.9 ± 0.3
Temperature recording during cerebral reperfusion ([3]; NC-111 (injections at 0, 0.5, 2 h of reperfusion), n = 9, postischemic time 0.5 hour): 37.7 ± 0.2
Ischemia-induced NADPH-diaphorase staining in CA1 ([4]; 24 hours postischemic): markedly reduced
Ischemia-induced NADPH-diaphorase staining in CA1 ([4]; 48 hours after ischemia): attenuation of the staining was persisted
CA1 neuronal density / protection of CA1 neurons (of non-ischemic control) (CA1 hippocampal neurons [5]; 10 min 4-VO ischemia, 10 mg/kg i.p. at 0, 0.5, 2 h (immediately after reperfusion), measured one week later): 45%
Protection of neurons in CA1 hippocampus (CA1 hippocampal neurons [5]; 10 min 4-VO ischemia, NAMDA treatment versus saline, one week later, Fisher's PLSD p<0.0001): significantly protected neurons in CA1 hippocampus
Neuron density in CA1 at 24 hours postischemic (CA1 hippocampal neurons [5]; 10 min ischemia, NAMDA-ischemic n=3, 24 hours postischemic): 18.3±2.2 neurons/10^5 μm^3
Protection of CA1 neurons with delayed administration (CA1 hippocampal neurons [5]; administration delayed up to 2 hours after ischemia, one week later): protect CA1 neurons despite delaying the treatment up to 2 hours; also recorded: significant protection of CA1 neurons
Total number of cells (cell viability) (BV-2 cells): did not affect the total number of cells
Baseline NADPH-diaphorase staining intensity ([6]; absence of LPS): not affected
LPS-induced NADPH-diaphorase activity (staining) ([6]; presence of LPS): attenuated
Nitrite accumulation in cell supernatant (BV-2 microglia cells; absence of LPS): did not alter nitrite accumulation
Nitrite accumulation in cell supernatant (BV-2 microglia cells; presence of LPS 0.2 μg/ml, ANOVA p<0.001): significantly reduced nitrite accumulation in a dose-dependent manner
